Tests used:
[1] = molecular target: KRas G12A (Homo sapiens, UniProt P01116, G12A); assay type: binding; details: for inhibition at 0.01 µM: single point, 10 nM compound, read-out: Binding to KRas (% inhibition at 10 nM) G12A
[2] = test system: PSN1 cells; experiment: Inhibition of KRas-mediated phosphorylation of ERK (Cisbio HTRF pERK), PSN1 cells; assay type: cell-based; details: Homo sapiens, PSN1, 3 h, 3 hour compound incubation, Cisbio pERK HTRF
In short: (§1)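 On the first day, plate 6,000 cells into each well in RPMI medium with 10% fetal bovine serum.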

[3] = molecular target: KRas G12V (Homo sapiens, UniProt P01116, G12V); experiment: biochemical; details: Binding to KRas (IC50 nM) G12V, TR-FRET displacement, KRas G12V
[4] = test system: H727 cells; experiment: Inhibition of KRas-mediated phosphorylation of ERK (Cisbio HTRF pERK), H727 cells; assay type: cell-based; details: Homo sapiens; for IC50: NCI-H727, 3 h, 3 hr compound incubation, Cisbio pERK HTRF
[5] = test system: MKN1 cells; experiment: Inhibition of KRas-mediated phosphorylation of ERK (Cisbio HTRF pERK), MKN1 cells; assay type: cell-based; details: Homo sapiens, MKN-1, 3 hour compound incubation, Cisbio pERK HTRF
In short: as §1

[6] = molecular target: KRas G12S (Homo sapiens, UniProt P01116, G12S); assay type: binding; details: for inhibition at 0.01 µM: single point, 10 nM compound, read-out: Binding to KRas (% inhibition at 10 nM) G12S
[7] = test system: H460 cells; experiment: Inhibition of KRas-mediated phosphorylation of ERK (Cisbio HTRF pERK), H460 cells; assay type: cell-based; details: Homo sapiens; for inhibition at 0.1 µM: NCI-H460, single point at 100 nM, 3 hrs compound incubation; for IC50: NCI-H460, 3 h, 3 hr compound incubation, Cisbio pERK HTRF
[8] = molecular target: KRas G13D (Homo sapiens, UniProt P01116, G13D); assay type: binding; details: for inhibition at 0.01 µM: single point, 10 nM compound, read-out: Binding to KRas (% inhibition at 10 nM) G13D
[9] = test system: HCT116 cells; experiment: Inhibition of KRas-mediated phosphorylation of ERK (Cisbio HTRF pERK), HCT116 cells; assay type: cell-based; details: Homo sapiens; for inhibition at 0.1 µM: HCT-116, single point at 100 nM, 3 hrs compound incubation; for IC50: HCT-116, 3 h, 3 hr compound incubation, Cisbio pERK HTRF
[10] = molecular target: KRas G12D (Homo sapiens, UniProt P01116, G12D); experiment: biochemical; details: Binding to KRas (IC50 nM) G12D, TR-FRET displacement, KRas G12D
[11] = molecular target: KRas Q61H (Homo sapiens, UniProt P01116, Q61H); experiment: KRas binding assay (TR-FRET displacement), KRas Q61H; details: for inhibition at 0.01 µM: single point, 10 nM compound
[12] = test system: A549 cells; experiment: Inhibition of KRas-mediated phosphorylation of ERK (Cisbio HTRF pERK), A549 cells; assay type: cell-based; details: Homo sapiens; for inhibition at 0.1 µM: single point at 100 nM, 3 hrs compound incubation; for IC50: A549, 3 h, 3 hr compound incubation, Cisbio pERK HTRF
[13] = molecular target: KRas WT (Homo sapiens, UniProt P01116); experiment: KRas binding assay (TR-FRET displacement), KRas WT; details: for inhibition at 0.01 µM: single point, 10 nM compound
[14] = test system: H358 cells; experiment: Inhibition of KRas-mediated phosphorylation of ERK (Cisbio HTRF pERK), H358 cells; assay type: cell-based; details: Homo sapiens, NCI-H358, single point at 100 nM, 3 hrs compound incubation
[15] = test system: ASPC1 cells; experiment: Inhibition of KRas-mediated phosphorylation of ERK (Cisbio HTRF pERK), ASPC1 cells; assay type: cell-based; details: Homo sapiens, AsPC-1 cells; for IC50: ASPC1, 3 h, 3 hr compound incubation, Cisbio pERK HTRF
[16] = molecular target: KRas G12C (Homo sapiens, UniProt P01116, G12C); assay type: binding; details: for inhibition at 0.01 µM: single point, 10 nM compound, read-out: Binding to KRas (% inhibition at 10 nM) G12C
[17] = molecular target: KRas G12R (Homo sapiens, UniProt P01116, G12R); experiment: biochemical; details: Binding to KRas (IC50 nM) G12R, TR-FRET displacement, KRas G12R
KRas G12R, sequence (P01116 1-169 isoform P01116-2 G12R): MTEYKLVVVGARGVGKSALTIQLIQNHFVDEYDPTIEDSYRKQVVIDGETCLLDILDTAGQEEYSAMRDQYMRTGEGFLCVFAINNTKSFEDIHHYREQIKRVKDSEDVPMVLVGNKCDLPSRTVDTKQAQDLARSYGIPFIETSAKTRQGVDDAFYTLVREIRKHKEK

KRas G12A, sequence (P01116 1-169 isoform P01116-2 G12A): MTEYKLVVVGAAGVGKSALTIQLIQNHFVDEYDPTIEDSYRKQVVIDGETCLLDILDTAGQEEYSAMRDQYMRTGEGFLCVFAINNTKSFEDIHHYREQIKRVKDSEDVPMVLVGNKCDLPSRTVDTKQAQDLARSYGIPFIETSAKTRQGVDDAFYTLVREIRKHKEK
KRas G12S, sequence (P01116 1-169 isoform P01116-2 G12S): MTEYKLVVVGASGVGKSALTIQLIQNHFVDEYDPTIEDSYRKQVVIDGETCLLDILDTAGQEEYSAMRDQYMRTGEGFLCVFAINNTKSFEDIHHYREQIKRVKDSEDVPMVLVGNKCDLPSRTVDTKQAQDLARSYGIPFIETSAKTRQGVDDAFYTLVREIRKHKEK
KRas G12D, sequence (P01116 1-169 isoform P01116-2 G12D): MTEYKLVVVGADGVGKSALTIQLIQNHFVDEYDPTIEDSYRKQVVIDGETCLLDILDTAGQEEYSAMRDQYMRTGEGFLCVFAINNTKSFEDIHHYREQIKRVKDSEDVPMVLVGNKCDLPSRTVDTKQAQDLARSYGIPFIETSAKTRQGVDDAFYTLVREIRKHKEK
KRas G13D, sequence (P01116 1-169 isoform P01116-2 G13D): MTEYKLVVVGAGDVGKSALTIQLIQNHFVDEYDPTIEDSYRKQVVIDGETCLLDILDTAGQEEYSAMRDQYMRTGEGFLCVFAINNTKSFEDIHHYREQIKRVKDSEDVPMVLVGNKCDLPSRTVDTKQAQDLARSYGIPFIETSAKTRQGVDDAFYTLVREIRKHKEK
KRas WT, sequence (P01116 1-169 isoform P01116-2): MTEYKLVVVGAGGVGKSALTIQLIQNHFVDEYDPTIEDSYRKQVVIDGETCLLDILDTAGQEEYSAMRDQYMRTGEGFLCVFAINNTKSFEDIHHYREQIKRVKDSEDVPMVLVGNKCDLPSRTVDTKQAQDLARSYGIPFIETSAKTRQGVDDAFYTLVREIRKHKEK
KRas G12C, sequence (P01116 1-169 isoform P01116-2 G12C): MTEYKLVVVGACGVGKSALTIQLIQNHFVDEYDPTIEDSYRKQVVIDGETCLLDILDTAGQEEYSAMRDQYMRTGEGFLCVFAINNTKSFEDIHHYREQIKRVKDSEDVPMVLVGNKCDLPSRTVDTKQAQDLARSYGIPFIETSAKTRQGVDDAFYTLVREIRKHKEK
KRas G12V, sequence (P01116 1-169 isoform P01116-2 G12V): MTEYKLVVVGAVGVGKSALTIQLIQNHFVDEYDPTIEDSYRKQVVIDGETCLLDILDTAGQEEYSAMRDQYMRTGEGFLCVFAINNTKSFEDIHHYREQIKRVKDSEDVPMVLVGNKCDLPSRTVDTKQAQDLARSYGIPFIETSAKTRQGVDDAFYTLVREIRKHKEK
KRas Q61H, sequence (P01116 1-169 isoform P01116-2 Q61H): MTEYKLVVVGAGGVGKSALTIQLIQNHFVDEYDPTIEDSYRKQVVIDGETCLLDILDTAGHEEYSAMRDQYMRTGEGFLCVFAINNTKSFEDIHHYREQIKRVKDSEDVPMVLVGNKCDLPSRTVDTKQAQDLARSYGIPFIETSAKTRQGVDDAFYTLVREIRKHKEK

| SMILES | inhibition at 0.01 µM [1] | IC50 [2] | IC50 [3] | IC50 [4] | IC50 [5] | inhibition at 0.01 µM [6] | inhibition at 0.01 µM [8] | IC50 [10] | inhibition at 0.01 µM [11] | inhibition at 0.01 µM [13] | IC50 [15] | inhibition at 0.01 µM [16] | IC50 [17] | IC50 [7] | IC50 [9] | IC50 [12] | further results |
| --- | --- | --- | --- | --- | --- | --- | --- | --- | --- | --- | --- | --- | --- | --- | --- | --- | --- |
| CCc1c(F)ccc2cc(O)cc(N3CCc4c(nc(OC[C@@]56CCCN5C[C@H](F)C6)nc4N4CCCn5nc(C(=O)N6CCN7CC(O)CC7C6)cc5C4)C3)c12 (stereo partly drawn) [Example 257, (5-(7-(8-ethyl-7-fluoro-3-hydroxynaphthalen-1-yl)-2-(((2R,7aS)-2-fluorotetrahydro-1H-pyrrolizin-7a(5H)-yl)methoxy)-5,6,7,8-tetrahydropyrido[3,4-d]pyrimidin-4-yl)-5,6,7,8-tetrahydro-4H-pyrazolo[1,5-a][1,4]diazepin-2-yl)(7-hydroxyhexahydropyrrolo[1,2-a]pyrazin-2(1H)-yl)methanone] | 97% | > 10000 nM | < 2 nM | 55 nM | 1.2 nM | 99% | 98% | < 2 nM | 100% | 98% | 31 nM | 99% | < 2 nM | – | – | – | inhibition at 0.1 µM ([4]; NCI-H727, single point at 100 nM, 3 hrs compound incubation): 36%; inhibition at 0.1 µM [7]: 21%; inhibition at 0.1 µM [9]: 8%; inhibition at 0.1 µM [12]: 35%; inhibition at 0.1 µM [14]: 95%; inhibition at 0.1 µM ([15]; ASPC1, single point at 100 nM, 3 hrs compound incubation): 77% |
| CCc1c(F)ccc2cc(O)cc(N3CCc4c(nc(OC[C@@]56CCCN5C[C@H](F)C6)nc4N4Cc5cn(C(=O)N(C)C)nc5CC(C)C4)C3)c12 (stereo partly drawn) [Example 422, 5-(7-(8-ethyl-7-fluoro-3-hydroxynaphthalen-1-yl)-2-(((2R,7aS)-2-fluorohexahydro-1H-pyrrolizin-7a-yl)methoxy)-5,6,7,8-tetrahydropyrido[3,4-d]pyrimidin-4-yl)-N,N,7-trimethyl-5,6,7,8-tetrahydropyrazolo[4,3-c]azepine-2(4H)-carboxamide] | 55% | > 10000 nM | < 2 nM | 78 nM | 189 nM | 60% | 55% | 2 nM | 62% | 58% | 163 nM | 72% | 3 nM | 169 nM | 616 nM | 147 nM | – |
| CCc1c(F)ccc2cccc(N3CCc4c(nc(OC[C@@]56CCCN5C[C@H](F)C6)nc4N4CCCn5nc(C(=O)N(C)C)cc5C4)C3)c12 [Example 481, 5-(7-(8-ethyl-7-fluoronaphthalen-1-yl)-2-(((2R,7aS)-2-fluorohexahydro-1H-pyrrolizin-7a-yl)methoxy)-5,6,7,8-tetrahydropyrido[3,4-d]pyrimidin-4-yl)-N,N-dimethyl-5,6,7,8-tetrahydro-4H-pyrazolo[1,5-a][1,4]diazepine-2-carboxamide] | – | > 10000 nM | 2 nM | 194 nM | 480 nM | – | – | < 2 nM | – | – | 106 nM | – | 6 nM | – | – | 285 nM | IC50 ([1]; TR-FRET displacement, read-out: Binding to KRas (IC50 nM) G12A): 7 nM; IC50 ([6]; TR-FRET displacement, read-out: Binding to KRas (IC50 nM) G12S): 5 nM; inhibition at 0.1 µM [7]: -1%; IC50 ([8]; TR-FRET displacement, read-out: Binding to KRas (IC50 nM) G13D): 15 nM; inhibition at 0.1 µM [9]: 8%; IC50 ([11]; TR-FRET displacement): 13 nM; IC50 ([13]; TR-FRET displacement): 11 nM; IC50 ([16]; TR-FRET displacement, read-out: Binding to KRas (IC50 nM) G12C): 4 nM |

Now from value to molecule, other results behind:

| inhibition at 0.01 µM [1] | IC50 [2] | IC50 [3] | IC50 [4] | IC50 [5] | inhibition at 0.01 µM [6] | inhibition at 0.01 µM [8] | IC50 [10] | inhibition at 0.01 µM [11] | inhibition at 0.01 µM [13] | IC50 [15] | inhibition at 0.01 µM [16] | IC50 [17] | IC50 [7] | IC50 [9] | IC50 [12] | SMILES | further results |
| --- | --- | --- | --- | --- | --- | --- | --- | --- | --- | --- | --- | --- | --- | --- | --- | --- | --- |
| 54% | > 10000 nM | 4 nM | 124 nM | 76.1 nM | 70% | 61% | 4 nM | 51% | 53% | 55 nM | 78% | 3 nM | 112 nM | – | – | CCc1c(F)ccc2cc(O)cc(N3CCc4c(nc(OC[C@@]56CCCN5C[C@H](F)C6)nc4N4CCCn5nc(NC)c(C)c5C4)C3)c12 [Example 376, 5-ethyl-6-fluoro-4-(2-(((2R,7aS)-2-fluorohexahydro-1H-pyrrolizin-7a-yl)methoxy)-4-(3-methyl-2-(methylamino)-7,8-dihydro-4H-pyrazolo[1,5-a][1,4]diazepin-5(6H)-yl)-5,6-dihydropyrido[3,4-d]pyrimidin-7(8H)-yl)naphthalen-2-ol] | inhibition at 0.1 µM [12]: 34%; inhibition at 0.1 µM [14]: 70% |
| 100% | 1980 nM | < 2 nM | 28 nM | 16 nM | 100% | 99% | < 2 nM | 100% | 99% | 26 nM | 100% | < 2 nM | 171 nM | 504 nM | 134 nM | CCc1c(F)ccc2cc(O)cc(N3CCc4c(nc(OC[C@@]56CCCN5C[C@H](F)C6)nc4N4CCCn5nc6c(c5C4)CCCNC6=O)C3)c12 [Example 415, 2-(7-(8-ethyl-7-fluoro-3-hydroxynaphthalen-1-yl)-2-(((2R,7aS)-2-fluorohexahydro-1H-pyrrolizin-7a-yl)methoxy)-5,6,7,8-tetrahydropyrido[3,4-d]pyrimidin-4-yl)-2,3,4,5,9,10,11,12-octahydroazepino[3′,4′:3,4]pyrazolo[1,5-a][1,4]diazepin-8(1H)-one] | – |
| 54% | 194 nM | < 2 nM | 37 nM | 6 nM | 72% | 82% | < 2 nM | 90% | 62% | 40 nM | 83% | < 2 nM | 20 nM | 38 nM | 9 nM | CCc1c(F)ccc2cc(O)cc(N3CCc4c(nc(OC[C@@]56CCCN5C[C@H](F)C6)nc4N4CCCC5(CC(=O)NC5=O)C4)C3)c12 (stereo partly drawn) [Example 419, 7-(7-(8-ethyl-7-fluoro-3-hydroxynaphthalen-1-yl)-2-(((2R,7aS)-2-fluorohexahydro-1H-pyrrolizin-7a-yl)methoxy)-5,6,7,8-tetrahydropyrido[3,4-d]pyrimidin-4-yl)-2,7-diazaspiro[4.5]decane-1,3-dione] | – |
| 96% | 2740 nM | < 2 nM | 38 nM | 5.8 nM | 97% | 95% | < 2 nM | 97% | 95% | 66 nM | 98% | < 2 nM | 38 nM | 143 nM | 24 nM | CCc1c(F)ccc2cc(O)cc(N3CCc4c(nc(OC[C@@]56CCCN5C[C@H](F)C6)nc4N4CCCOCC4)C3)c12 [Example 420, 5-ethyl-6-fluoro-4-(2-(((2R,7aS)-2-fluorohexahydro-1H-pyrrolizin-7a-yl)methoxy)-4-(1,4-oxazepan-4-yl)-5,6-dihydropyrido[3,4-d]pyrimidin-7(8H)-yl)naphthalen-2-ol] | – |
